Columns and labels:
CYP3A4 [1] = biological target: T1, CYP3A4 (Homo sapiens (Human), UniProt P08684); experiment: Inhibition of site of metabolism of midazolam in human liver microsome CYP3A4; type: in vitro ADME; conditions: midazolam substrate
Protocol: (§1) • 1. Phosphate buffer (20×PBS, purchased from Sangon); • 2. NADPH (ACROS, A2646-71-1); • 3. Human liver microsome (Corning Gentest, Cat No, 452161, Lot No. 9050002, Donor, 36); • 4. ABI QTrap 4000 LC-MS System (AB Sciex); • 5. ZORBAX Extend-C18, 3×50 mm, 3.5 μm (Agilent, USA); • 6. CYP probe substrate (midazolam, TRC, M343000/3 μM) and positive control inhibitor (ketoconazole, SIGMA, Cat No. K1003-100MG).
A 100 mM PBS buffer was prepared. A 0.25 mg/mL microsome solution, a 7.5 mM MgCl2 and a 5 mM NADPH solution were prepared using the buffer. A 30 mM stock solution was diluted with DMSO to obtain 30 mM, 10 mM, 3 mM, 1 mM, 0.3 mM, 0.03 mM, 0.003 mM and 0 mM serial solutions I, which were further diluted 200-fold with phosphate buffer (PBS) to obtain serial test solutions II (150, 50, 15, 5, 1.5, 0.15, 0.015 and 0 μM). A midazolam working solution was diluted with PBS to 15 μM.
40 μL of a 0.25 mg/mL microsome solution prepared in 7.5 mM MgCl2 and 20 μL of each of the 15 μM midazolam working solution and the compound working solutions (150, 50, 15, 5, 1.5, 0.15, 0.015 and 0 μM) were measured out and well mixed. Ketoconazole at the same concentration was used in place of the compounds as a positive control group. The mixtures were pre-incubated with 5 mM NADPH solution at 37° C. for 5 min at the same time. After 5 minutes, 20 μL of NADPH was added to each well to start reactions. The mixtures were incubated for 30 min. Duplicate samples were set for all of the incubated samples. After 30 minutes, 250 μL of internal standard-containing acetonitrile was added to all the samples. The mixtures were well mixed, shaken at 800 rpm for 10 min, and then centrifuged at 3700 rpm for 10 min. 100 μL of the supernatant and 80 μL of ultrapure water were well mixed and subjected to LC-MS/MS analysis.
The IC50 values of the drugs for the site of metabolism of midazolam in CYP3A4 were calculated using Graphpad Prism and are shown in Table 5.

CYP3A4 [2] = biological target: T1, CYP3A4; experiment: Time-dependent inhibition of site of metabolism of testosterone in human liver microsome CYP3A4; type: in vitro ADME; conditions: testosterone substrate; for IC50 shift at 30 min: human, human liver microsomes, probe testosterone (75 µM)
Protocol: as §1, with “905002, Donor36);” for “9050002, Donor, 36);”, “(testosterone, Vocko, CAS No. [58-22-0]/75” for “(midazolam, TRC, M343000/3”, “(verapamil, Adamas Reagent Co Ltd,” for “(ketoconazole, SIGMA,”, “25904A).” for “K1003-100MG).”
A 100 mM PBS buffer was prepared. A 0.25 mg/mL microsome solution, a 7.5 mM MgCl2 and a 5 mM NADPH solution were prepared using the buffer. A 30 mM stock solution was diluted with DMSO to obtain 30 mM, 10 mM, 3 mM, 1 mM, 0.3 mM, 0.1 mM, 0.03 mM and 0 mM serial solutions I, which were further diluted 200-fold with phosphate buffer (PBS) to obtain serial test solutions II (150, 50, 15, 5, 1.5, 0.5, 0.15 and 0 μM). A midazolam working solution was diluted with PBS to 15 μM.
The serial test solutions prepared above were well mixed by shaking and aliquoted in 20 μL portions into corresponding reaction plates (+NADPH, T0 and −NADPH groups were set). Three parallel tests were set. 40 μL of the liver microsome working solution was added to each 96-well plate. 20 μL of a corresponding substrate solution was added to the T0 plate. 20 μL of NADPH was added to the TO plate and +NADPH group. A timer was started, and the plates were incubated in a water bath at 37° C. After 30 min of incubation, the TO plate was taken out, and the reaction was terminated with 250 μL of an internal standard-containing ACN solution. The +NADPH group was supplemented with 20 μL of the corresponding substrate solution, and the −NADPH group was supplemented with 20 μL of the corresponding substrate solution and […]. A timer was started, and the plates were incubated in a water bath at 37° C. After 30 min of incubation, the plates were taken out, and the reactions were terminated with 250 μL of an internal standard-containing ACN solution. Then the plates were shaken on a shaker at 800 rpm for 10 min and centrifuged at 4000 rpm for 15 min. 100 μL of the supernatant and 80 μL of ultrapure water were well mixed and subjected to LC-MS/MS analysis.
The IC50 values of the drugs for the site of metabolism of testosterone in CYP3A4 were calculated using Graphpad Prism and are shown in Table 8.

[3] = 30 min pre-incubation with NADPH

T1 sequence (P08684 whole entry): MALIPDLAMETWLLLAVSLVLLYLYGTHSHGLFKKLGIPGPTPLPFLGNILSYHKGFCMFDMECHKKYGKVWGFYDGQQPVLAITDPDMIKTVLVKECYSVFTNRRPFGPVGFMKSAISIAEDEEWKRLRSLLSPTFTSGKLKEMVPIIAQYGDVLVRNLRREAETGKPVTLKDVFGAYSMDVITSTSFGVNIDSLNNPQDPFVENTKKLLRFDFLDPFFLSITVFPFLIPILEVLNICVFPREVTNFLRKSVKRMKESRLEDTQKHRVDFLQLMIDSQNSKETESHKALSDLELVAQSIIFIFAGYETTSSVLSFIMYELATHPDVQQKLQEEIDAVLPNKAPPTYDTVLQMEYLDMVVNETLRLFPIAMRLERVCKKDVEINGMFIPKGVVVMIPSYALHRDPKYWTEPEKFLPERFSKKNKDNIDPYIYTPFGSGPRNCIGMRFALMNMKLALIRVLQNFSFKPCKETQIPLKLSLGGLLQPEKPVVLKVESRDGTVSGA

| Compound | IC50 (CYP3A4 [1]) [µM] | IC50 shift at 30 min (CYP3A4 [2]) | IC50 (CYP3A4 [2]; [3]) [µM] | IC50 (CYP3A4 [2]; pre-incubation without NADPH) [µM] | IC50 Shift (CYP3A4 [2]) |
| --- | --- | --- | --- | --- | --- |
| C[C@@H]1Cc2cc3c(cc2[C@@H](c2ccc(N[C@H]4CCN(CCCF)C4)cc2)N1CC(F)(F)F)OCO3 [Example 1, (S)-1-(3-fluoropropyl)-N-(4-((5R,7R)-7-methyl-6-(2,2,2-trifluoroethyl)-5,6,7,8-tetrahydro-[1,3]dioxolo[4,5-g]isoquinolin-5-yl)phenyl)pyrrolidin-3-amine] | 15.8 |  |  |  |  |
| C[C@@H]1Cc2cc3c(cc2[C@@H](c2c(F)cc(N[C@H]4CCN(CCCF)C4)cc2F)N1CC(F)(F)F)OCO3 [Example 2, (S)—N-(3,5-difluoro-4-((5S,7R)-7-methyl-6-(2,2,2-trifluoroethyl)-5,6,7,8-tetrahydro-[1,3]dioxolo[4,5-g]isoquinolin-5-yl)phenyl)-1-(3-fluoropropyl)pyrrolidin-3-amine] | > 30 |  |  |  |  |
| C[C@@H]1Cc2cc3c(cc2[C@@H](c2ccc(N[C@H]4CCN(CCCF)C4)cc2)N1CC(F)(F)CO)OCO3 [Example 3, 2,2-Difluoro-3-((5R,7R)-5-(4-(((S)-1-(3-fluoropropyl)pyrrolidin-3-yl)amino)phenyl)-7-methyl-7,8-dihydro-[1,3]dioxolo[4,5-g]isoquinolin-6(5H)-yl)propan-1-ol] | 10 |  |  |  |  |
| C[C@@H]1Cc2cc3c(cc2[C@@H](c2ccc(N[C@H]4CCN(CCCF)C4)cn2)N1CC(F)(F)CO)OCO3 [Example 4, 2,2-Difluoro-3-((5S,7R)-5-(5-(((S)-1-(3-fluoropropyl)pyrrolidin-3-yl)amino)pyridin-2-yl)-7-methyl-7,8-dihydro-[1,3]dioxolo[4,5-g]isoquinolin-6(5H)-yl)propan-1-ol] |  | 1 | 2.4 | 2.5 |  |
| [2H]C1([2H])Oc2cc3c(cc2O1)[C@@H](c1ccc(N[C@H]2CCN(CCCF)C2)cn1)N(CC(F)(F)CO)[C@H](C)C3 [Example 12, 2,2-Difluoro-3-((5S,7R)-5-(5-(((S)-1-(3-fluoropropyl)pyrrolidin-3-yl)amino)pyridin-2-yl)-7-methyl-7,8-dihydro-[1,3]dioxolo[4,5-g]isoquinolin-6(5H)-yl-2,2-d2)propan-1-ol] | 8.18 | 0.5 | 11.6 | 25.2 |  |
| [2H]C1([2H])Oc2cc3c(cc2O1)[C@@H](c1ccc(NC2CN(CCCF)C2)cn1)N(CC(F)(F)CO)[C@H](C)C3 [Example 13, 2,2-Difluoro-3-((5S,7R)-5-(5-((1-(3-fluoropropyl)azetidin-3-yl)amino)pyridin-2-yl)-7-methyl-7,8-dihydro-[1,3]dioxolo[4,5-g]isoquinolin-6(5H)-yl-2,2-d2)propan-1-ol] |  |  |  |  | No TDI |
